Tested on: Culex tarsalis mosquitoes
Assay: Observation of mosquitoes feeding upon scented, spun (cotton candy) baits
Type: in vivo
Details: for Number of mosquitos observed feeding each scent: scented spun cotton candy bait
From the text: One strategy for a solid bait that we tested was a “cotton candy” or spun sugar bait (FIG. 11). The cotton candy could be pressed into the feeding well, over and on top of a dried enzyme pellet and a ball bearing for magnetic mixing. We anticipated this would allow a large surface area for mosquitoes to feed, as well as dissolve instantly upon adding a drop of rehydration buffer. Plain cotton candy made from pure sucrose turned out to be unstable upon storage for more than a few days, and we subsequently devised a way to modify the cotton candy by melting a polymer (PEG) with the sugar prior to spinning, to stabilize it against shriveling in ambient humidity. […] Based on this experiment (Table 1), we determined that both honey and plumeria could be used as attractants for sugar-feeding Culex tarsalis mosquitoes.

## O=CCc1ccccc1 [Phenylacetaldehyde]
Day 0
  Number of mosquitos observed feeding each scent: 0
Day 1
  Number of mosquitos observed feeding each scent: 5
Day 2
  Number of mosquitos observed feeding each scent: 1
Day 3
  Number of mosquitos observed feeding each scent: 4
Day 4
  Number of mosquitos observed feeding each scent: 3
Sum of Day 0 to Day 4
  Number of mosquitos observed feeding each scent, Sum: 13

Source: patent US11366116B1, “Real time autonomous surveillance of pathogens” (priority 2017, dated 2022)
